Key:
Assay in all cases: biochemical
Assay type in all cases: biochemical
[1] = molecular target: T1, 363 human kinases (including Aurora A/B/C) (Homo sapiens, UniProt O43318); conditions: TAK1; for remaining activity at 0.1 µM: 100 nM; for remaining activity at 0.1 µM / remaining activity at 0.5 µM: read-out: % Enzyme Activity (relative to DMSO controls)
T1 sequence (O43318 1-606): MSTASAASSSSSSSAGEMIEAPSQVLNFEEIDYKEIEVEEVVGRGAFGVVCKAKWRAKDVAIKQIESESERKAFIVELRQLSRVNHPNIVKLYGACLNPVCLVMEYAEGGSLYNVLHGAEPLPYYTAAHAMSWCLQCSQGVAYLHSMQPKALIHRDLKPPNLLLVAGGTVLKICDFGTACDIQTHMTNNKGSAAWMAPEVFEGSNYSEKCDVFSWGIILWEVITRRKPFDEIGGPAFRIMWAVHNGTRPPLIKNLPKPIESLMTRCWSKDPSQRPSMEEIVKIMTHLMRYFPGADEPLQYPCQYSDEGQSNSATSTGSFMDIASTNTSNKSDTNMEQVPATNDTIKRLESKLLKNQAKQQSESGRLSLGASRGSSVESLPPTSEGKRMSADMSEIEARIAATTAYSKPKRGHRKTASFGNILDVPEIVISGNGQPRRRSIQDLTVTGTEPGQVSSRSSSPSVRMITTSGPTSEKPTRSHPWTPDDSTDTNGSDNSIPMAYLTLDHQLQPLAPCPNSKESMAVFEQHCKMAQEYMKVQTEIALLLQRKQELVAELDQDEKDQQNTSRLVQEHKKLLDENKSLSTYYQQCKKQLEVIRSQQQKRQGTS
From the text: (§1) However, the Aurora A/B selectivity ratios derived from our in vitro and in vivo data can be compared to prioritize inhibitors.

[2] = molecular target: 363 human kinases (including Aurora A/B/C) (Homo sapiens, UniProt P04629); conditions: TRKA; for remaining activity at 0.1 µM: 100 nM
From the text: as §1

[3] = molecular target: 363 human kinases (including Aurora A/B/C) (Homo sapiens, UniProt P07948); conditions: LYN; for remaining activity at 0.1 µM: 100 nM; for remaining activity at 0.1 µM / remaining activity at 0.5 µM: read-out: % Enzyme Activity (relative to DMSO controls)
From the text: as §1

[4] = molecular target: 363 human kinases (including Aurora A/B/C) (Homo sapiens, UniProt P35968); conditions: KDR/VEGFR2; for remaining activity at 0.1 µM: 100 nM; for remaining activity at 0.1 µM / remaining activity at 0.5 µM: read-out: % Enzyme Activity (relative to DMSO controls)
From the text: as §1

[5] = molecular target: T2, 363 human kinases (including Aurora A/B/C) (Homo sapiens, UniProt P51813); conditions: BMX/ETK, [ATP] 50 µM; for remaining activity at 0.1 µM: 100 nM; for remaining activity at 0.1 µM / remaining activity at 0.5 µM: read-out: % Enzyme Activity (relative to DMSO controls)
T2 sequence (P51813 1-675): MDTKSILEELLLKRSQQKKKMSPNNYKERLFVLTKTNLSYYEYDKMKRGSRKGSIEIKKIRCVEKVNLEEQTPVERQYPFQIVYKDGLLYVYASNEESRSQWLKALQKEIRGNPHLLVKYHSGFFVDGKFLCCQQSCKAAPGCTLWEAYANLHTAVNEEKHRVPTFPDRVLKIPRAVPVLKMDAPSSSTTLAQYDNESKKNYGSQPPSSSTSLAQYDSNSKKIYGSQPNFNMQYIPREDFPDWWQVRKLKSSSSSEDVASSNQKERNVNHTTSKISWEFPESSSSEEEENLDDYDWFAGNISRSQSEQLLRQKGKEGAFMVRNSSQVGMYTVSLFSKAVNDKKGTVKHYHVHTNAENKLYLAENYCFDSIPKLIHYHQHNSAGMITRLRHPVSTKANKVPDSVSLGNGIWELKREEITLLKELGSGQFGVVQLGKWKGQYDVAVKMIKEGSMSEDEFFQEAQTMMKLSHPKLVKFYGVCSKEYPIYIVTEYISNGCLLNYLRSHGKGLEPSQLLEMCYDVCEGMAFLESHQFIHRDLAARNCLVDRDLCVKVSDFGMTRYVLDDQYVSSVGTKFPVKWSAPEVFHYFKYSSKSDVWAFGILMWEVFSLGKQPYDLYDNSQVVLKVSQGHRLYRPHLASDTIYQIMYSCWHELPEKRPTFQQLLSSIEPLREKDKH
From the text: as §1

[6] = molecular target: T3, 363 human kinases (including Aurora A/B/C) (Homo sapiens, UniProt Q02156); conditions: PKCepsilon; for remaining activity at 0.1 µM: 100 nM; for remaining activity at 0.1 µM / remaining activity at 0.5 µM: read-out: % Enzyme Activity (relative to DMSO controls)
T3 sequence (Q02156 1-737): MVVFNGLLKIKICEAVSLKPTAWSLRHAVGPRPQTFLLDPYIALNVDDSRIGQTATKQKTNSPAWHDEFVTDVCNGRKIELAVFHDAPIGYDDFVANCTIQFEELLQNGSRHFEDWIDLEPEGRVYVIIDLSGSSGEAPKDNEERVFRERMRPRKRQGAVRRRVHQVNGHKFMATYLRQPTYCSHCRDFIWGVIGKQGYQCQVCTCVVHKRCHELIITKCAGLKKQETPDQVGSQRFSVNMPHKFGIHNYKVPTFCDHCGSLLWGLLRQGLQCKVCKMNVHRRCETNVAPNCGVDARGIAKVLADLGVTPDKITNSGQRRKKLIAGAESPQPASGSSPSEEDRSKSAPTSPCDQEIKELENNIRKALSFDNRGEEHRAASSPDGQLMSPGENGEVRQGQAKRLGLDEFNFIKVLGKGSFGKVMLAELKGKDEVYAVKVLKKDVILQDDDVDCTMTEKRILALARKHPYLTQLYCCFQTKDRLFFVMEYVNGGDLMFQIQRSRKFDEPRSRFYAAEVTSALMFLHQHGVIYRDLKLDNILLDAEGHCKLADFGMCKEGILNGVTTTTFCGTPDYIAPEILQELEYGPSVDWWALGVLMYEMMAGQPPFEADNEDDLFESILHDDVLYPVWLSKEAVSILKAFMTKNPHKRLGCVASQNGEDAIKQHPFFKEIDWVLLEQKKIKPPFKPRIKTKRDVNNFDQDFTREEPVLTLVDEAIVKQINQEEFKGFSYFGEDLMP
From the text: as §1

[7] = molecular target: T4, 363 human kinases (including Aurora A/B/C) (Homo sapiens, UniProt Q9UBE8); conditions: NLK; for remaining activity at 0.1 µM: 100 nM; for remaining activity at 0.1 µM / remaining activity at 0.5 µM: read-out: % Enzyme Activity (relative to DMSO controls)
T4 sequence (Q9UBE8 1-527): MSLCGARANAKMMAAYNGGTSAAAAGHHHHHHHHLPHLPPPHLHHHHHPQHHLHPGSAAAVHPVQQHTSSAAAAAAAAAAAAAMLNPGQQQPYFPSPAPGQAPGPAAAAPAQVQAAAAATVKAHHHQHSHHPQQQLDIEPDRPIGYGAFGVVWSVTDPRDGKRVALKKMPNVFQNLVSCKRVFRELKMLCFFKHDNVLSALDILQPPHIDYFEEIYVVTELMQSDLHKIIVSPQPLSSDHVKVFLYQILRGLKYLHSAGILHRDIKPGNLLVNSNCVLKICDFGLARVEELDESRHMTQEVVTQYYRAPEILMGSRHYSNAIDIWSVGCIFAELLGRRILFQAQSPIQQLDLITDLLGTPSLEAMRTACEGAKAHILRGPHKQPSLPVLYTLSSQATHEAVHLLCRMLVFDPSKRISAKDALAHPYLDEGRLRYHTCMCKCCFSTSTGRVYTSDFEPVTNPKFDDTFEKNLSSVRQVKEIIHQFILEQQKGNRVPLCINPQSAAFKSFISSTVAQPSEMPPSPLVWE
From the text: as §1

[8] = read-out: % Enzyme Activity (relative to DMSO controls)

363 human kinases (including Aurora A/B/C) (Homo sapiens, UniProt P07948), sequence (P07948 whole entry): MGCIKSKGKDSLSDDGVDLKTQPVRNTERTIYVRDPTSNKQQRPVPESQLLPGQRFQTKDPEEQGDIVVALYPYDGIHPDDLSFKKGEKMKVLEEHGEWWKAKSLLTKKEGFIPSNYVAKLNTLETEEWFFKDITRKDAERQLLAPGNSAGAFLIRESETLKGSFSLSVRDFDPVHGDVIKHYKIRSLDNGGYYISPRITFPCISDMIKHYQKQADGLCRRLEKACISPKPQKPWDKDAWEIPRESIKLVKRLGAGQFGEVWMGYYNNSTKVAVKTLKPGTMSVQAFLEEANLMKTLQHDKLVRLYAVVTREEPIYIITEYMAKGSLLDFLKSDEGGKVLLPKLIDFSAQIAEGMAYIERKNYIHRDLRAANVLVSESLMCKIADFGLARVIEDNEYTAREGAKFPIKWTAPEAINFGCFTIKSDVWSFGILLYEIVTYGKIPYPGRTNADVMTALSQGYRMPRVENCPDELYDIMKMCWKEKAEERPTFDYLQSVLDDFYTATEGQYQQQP
363 human kinases (including Aurora A/B/C) (Homo sapiens, UniProt P04629), sequence (P04629 33-796): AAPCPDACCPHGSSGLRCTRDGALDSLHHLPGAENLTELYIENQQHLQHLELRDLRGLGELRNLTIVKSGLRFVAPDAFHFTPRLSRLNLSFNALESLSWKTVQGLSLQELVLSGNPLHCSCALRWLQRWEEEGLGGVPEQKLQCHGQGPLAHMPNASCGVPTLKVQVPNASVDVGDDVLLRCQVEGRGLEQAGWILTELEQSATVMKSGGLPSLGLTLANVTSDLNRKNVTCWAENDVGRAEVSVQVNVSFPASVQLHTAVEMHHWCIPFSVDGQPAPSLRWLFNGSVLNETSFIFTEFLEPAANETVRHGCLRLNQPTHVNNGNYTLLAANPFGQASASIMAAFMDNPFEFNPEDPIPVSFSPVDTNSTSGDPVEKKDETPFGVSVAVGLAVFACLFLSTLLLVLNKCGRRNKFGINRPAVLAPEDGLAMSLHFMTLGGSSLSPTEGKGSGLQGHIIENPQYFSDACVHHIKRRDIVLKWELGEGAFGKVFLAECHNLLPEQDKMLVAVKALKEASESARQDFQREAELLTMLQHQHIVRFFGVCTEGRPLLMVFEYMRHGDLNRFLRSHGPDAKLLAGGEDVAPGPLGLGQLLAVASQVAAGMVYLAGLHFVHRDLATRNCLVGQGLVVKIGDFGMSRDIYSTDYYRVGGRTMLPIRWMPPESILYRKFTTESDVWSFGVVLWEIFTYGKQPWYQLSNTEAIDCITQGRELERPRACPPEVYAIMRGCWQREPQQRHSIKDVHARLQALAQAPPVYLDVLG
363 human kinases (including Aurora A/B/C) (Homo sapiens, UniProt P35968), sequence (P35968 20-1356): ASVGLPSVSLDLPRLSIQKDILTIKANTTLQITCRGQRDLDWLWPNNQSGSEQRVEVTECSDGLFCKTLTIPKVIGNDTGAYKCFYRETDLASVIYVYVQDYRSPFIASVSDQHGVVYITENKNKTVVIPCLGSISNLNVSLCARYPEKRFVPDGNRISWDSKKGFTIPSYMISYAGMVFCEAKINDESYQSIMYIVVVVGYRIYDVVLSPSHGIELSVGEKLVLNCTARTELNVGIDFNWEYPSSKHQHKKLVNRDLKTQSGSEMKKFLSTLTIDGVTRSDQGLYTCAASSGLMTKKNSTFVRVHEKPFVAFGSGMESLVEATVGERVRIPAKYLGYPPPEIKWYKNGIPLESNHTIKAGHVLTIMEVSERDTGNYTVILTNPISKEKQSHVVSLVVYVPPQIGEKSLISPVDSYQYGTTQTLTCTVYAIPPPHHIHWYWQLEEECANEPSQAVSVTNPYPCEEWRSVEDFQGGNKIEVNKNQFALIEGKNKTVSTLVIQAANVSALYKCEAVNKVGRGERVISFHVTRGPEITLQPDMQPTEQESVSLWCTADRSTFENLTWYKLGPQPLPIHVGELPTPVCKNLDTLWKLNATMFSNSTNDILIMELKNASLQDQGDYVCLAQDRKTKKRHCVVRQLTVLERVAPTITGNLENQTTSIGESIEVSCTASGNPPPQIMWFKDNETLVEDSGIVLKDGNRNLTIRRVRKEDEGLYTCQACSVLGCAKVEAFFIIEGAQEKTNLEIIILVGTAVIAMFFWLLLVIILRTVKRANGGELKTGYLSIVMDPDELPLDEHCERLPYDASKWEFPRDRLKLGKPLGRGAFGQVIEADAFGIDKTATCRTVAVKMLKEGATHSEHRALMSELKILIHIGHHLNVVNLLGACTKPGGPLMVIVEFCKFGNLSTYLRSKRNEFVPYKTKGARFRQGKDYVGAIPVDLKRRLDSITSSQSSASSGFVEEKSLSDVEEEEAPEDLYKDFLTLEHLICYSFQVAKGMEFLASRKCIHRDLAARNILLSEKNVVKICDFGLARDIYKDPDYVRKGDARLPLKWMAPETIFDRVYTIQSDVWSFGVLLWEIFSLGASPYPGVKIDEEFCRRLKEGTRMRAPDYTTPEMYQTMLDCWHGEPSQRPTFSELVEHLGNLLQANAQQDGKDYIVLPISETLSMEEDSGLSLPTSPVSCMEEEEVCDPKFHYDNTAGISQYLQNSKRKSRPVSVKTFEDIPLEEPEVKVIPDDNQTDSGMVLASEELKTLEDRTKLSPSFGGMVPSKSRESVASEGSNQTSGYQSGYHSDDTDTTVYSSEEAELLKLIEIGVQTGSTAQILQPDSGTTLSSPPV

Compound | remaining activity at 0.1 µM [1] [%] | remaining activity at 0.1 µM [2, 8] [%] | remaining activity at 0.1 µM [3] [%] | remaining activity at 0.1 µM [4] [%] | remaining activity at 0.1 µM [5] [%] | remaining activity at 0.1 µM [6] [%] | remaining activity at 0.1 µM [7] [%] | remaining activity at 0.5 µM ([1]; 500 nM) [%] | remaining activity at 0.5 µM ([3]; 500 nM) [%] | remaining activity at 0.5 µM ([4]; 500 nM) [%] | remaining activity at 0.5 µM ([5]; 500 nM) [%] | remaining activity at 0.5 µM ([6]; 500 nM) [%] | remaining activity at 0.5 µM ([7]; 500 nM) [%] | other results
CCn1cc(-c2ccnc3[nH]c(-c4cccc(CN(C)C)c4)cc23)c(-c2ccc(NC(=O)N(C)C)cc2)n1 [GSK1070916] | 99 | 87.7 | 79.2 | 87.5 | 96.1 | 102 | 95.7 |  |  |  |  |  |  | 
O=C(O)[C@]1(Cc2cccc(Nc3nccs3)n2)CC[C@@H](Oc2cccc(Cl)c2F)CC1 [MK-5108] | 93.8 | 8.42 | 76.9 | 36.8 | 48.1 | 111 | 100 | 79.1 | 45.6 | 13.1 | 14.2 | 101 | 94.5 | 
O=C(c1cccc(Cl)c1F)N1CCN(Cc2cccc(Nc3nccs3)n2)CC1 [MK-8745] |  |  |  |  |  |  |  | 96.6 | 65.1 | 96.7 | 90.7 | 120 | 98.5 | % Enzyme Activity (relative to DMSO controls) ([1]; 500 nM): 93.95%; % Enzyme Activity (relative to DMSO controls) ([2]; 500 nM): 32.47%; remaining activity at 0.5 µM ([2]; 500 nM, read-out: % Enzyme Activity (relative to DMSO controls)): 34.6%; % Enzyme Activity (relative to DMSO controls) ([3]; 500 nM): 64.18%; % Enzyme Activity (relative to DMSO controls) ([4]; 500 nM): 96.11%; % Enzyme Activity (relative to DMSO controls) ([5]; 500 nM): 88.19%; % Enzyme Activity (relative to DMSO controls) ([6]; 500 nM): 120.37%; % Enzyme Activity (relative to DMSO controls) ([7]; 500 nM): 97.25%

From article PMC4685510, “A Cell Biologist’s Field Guide to Aurora Kinase Inhibitors” (Frontiers in Oncology, 2015)
